The values below come from ChEMBL document CHEMBL3991601, “The target landscape of clinical kinase drugs” (Science, 2017).

The Kd is a measure of binding affinity in units of concentration.

The target in assay [1] is Ribosomal protein S6 kinase alpha-4 (Homo sapiens, UniProt O75676).
Assay [2] concerns the target Casein kinase I isoform delta (Homo sapiens, UniProt P48730).
Assay [3] has as its target T1, Mitogen-activated protein kinase 15 (Homo sapiens, UniProt Q8TD08).
T1 sequence (Q8TD08 whole entry): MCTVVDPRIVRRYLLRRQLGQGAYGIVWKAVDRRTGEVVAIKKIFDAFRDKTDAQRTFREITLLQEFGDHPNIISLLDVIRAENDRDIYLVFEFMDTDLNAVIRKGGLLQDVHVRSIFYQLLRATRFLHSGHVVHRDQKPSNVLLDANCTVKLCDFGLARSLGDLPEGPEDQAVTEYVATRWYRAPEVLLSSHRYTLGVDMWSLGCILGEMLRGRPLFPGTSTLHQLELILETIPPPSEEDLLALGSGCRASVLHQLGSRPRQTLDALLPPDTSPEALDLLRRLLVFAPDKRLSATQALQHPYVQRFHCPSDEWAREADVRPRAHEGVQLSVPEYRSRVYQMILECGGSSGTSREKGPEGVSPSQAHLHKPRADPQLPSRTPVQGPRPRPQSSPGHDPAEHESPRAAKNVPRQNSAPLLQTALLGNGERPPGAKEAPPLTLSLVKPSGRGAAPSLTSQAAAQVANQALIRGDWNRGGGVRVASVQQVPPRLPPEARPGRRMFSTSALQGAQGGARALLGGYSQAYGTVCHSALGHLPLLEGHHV

Assay [4] concerns the target T2, MAP kinase-activated protein kinase 5 (Homo sapiens, UniProt Q8IW41).
T2 sequence (Q8IW41 whole entry): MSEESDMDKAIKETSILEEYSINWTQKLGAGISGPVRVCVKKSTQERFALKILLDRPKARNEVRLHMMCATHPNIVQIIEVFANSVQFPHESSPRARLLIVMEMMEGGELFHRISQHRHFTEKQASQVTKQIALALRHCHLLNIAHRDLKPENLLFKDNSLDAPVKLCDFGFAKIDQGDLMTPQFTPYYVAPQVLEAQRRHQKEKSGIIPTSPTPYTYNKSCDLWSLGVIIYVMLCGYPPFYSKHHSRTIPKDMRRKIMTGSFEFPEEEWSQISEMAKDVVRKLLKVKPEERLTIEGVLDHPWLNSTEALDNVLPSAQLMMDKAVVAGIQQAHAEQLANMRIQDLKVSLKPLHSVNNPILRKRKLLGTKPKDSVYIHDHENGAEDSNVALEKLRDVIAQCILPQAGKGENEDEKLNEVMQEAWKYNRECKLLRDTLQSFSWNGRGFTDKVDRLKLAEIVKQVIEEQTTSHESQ

Assay [5] has as its target RAC-gamma serine/threonine-protein kinase (Homo sapiens, UniProt Q9Y243).
Assay [6] concerns the target Protein-tyrosine kinase 6 (Homo sapiens, UniProt Q13882).
In assay [7] the target is T3, NUAK family SNF1-like kinase 2 (Homo sapiens, UniProt Q9H093).
T3 sequence (Q9H093 whole entry): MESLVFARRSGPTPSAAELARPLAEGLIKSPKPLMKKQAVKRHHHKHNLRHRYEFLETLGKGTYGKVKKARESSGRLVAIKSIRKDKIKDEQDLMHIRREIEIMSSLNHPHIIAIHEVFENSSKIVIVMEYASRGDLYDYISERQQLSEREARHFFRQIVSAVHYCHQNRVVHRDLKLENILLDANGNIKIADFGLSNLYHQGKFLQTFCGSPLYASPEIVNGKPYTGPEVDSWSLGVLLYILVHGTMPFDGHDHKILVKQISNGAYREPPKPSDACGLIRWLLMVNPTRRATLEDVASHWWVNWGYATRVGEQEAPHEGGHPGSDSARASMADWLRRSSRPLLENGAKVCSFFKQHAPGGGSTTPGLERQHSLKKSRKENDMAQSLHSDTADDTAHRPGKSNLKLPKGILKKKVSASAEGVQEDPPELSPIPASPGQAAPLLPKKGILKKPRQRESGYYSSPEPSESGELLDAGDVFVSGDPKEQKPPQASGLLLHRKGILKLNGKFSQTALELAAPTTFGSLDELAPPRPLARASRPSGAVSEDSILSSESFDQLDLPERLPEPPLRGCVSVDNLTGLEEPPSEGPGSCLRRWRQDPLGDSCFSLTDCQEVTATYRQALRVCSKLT

For assay [8], the target named is T4, Ras-related protein Rab-27A (Homo sapiens, UniProt P51159).
T4 sequence (P51159 whole entry): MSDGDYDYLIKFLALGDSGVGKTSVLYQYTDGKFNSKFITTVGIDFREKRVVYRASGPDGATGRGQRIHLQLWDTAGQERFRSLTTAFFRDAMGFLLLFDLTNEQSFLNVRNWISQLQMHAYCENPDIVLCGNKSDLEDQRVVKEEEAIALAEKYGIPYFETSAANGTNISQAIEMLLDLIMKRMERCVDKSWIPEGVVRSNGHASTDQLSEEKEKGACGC

Assay [9] has as its target Tyrosine-protein kinase ABL2 (Homo sapiens, UniProt P42684).
Assay [10] addresses Mitogen-activated protein kinase kinase kinase 20 (Homo sapiens, UniProt Q9NYL2).
The target of assay [11] is cAMP-dependent protein kinase catalytic subunit alpha (Homo sapiens, UniProt P17612).
The target of assay [12] is 5'-AMP-activated protein kinase catalytic subunit alpha-1 (Homo sapiens, UniProt Q13131).
Assay [13] concerns the target Macrophage-stimulating protein receptor (Homo sapiens, UniProt Q04912).

Active and inactive are the calls of the source. Cut-off read from the data, not from the text of the source, for most assays here: actives have a measured Kd and inactives only a lower limit.
Note: in the data inactive means no Kd found up to 30 µM.

Macrophage-stimulating protein receptor, sequence (Q04912 25-304 limits assumed): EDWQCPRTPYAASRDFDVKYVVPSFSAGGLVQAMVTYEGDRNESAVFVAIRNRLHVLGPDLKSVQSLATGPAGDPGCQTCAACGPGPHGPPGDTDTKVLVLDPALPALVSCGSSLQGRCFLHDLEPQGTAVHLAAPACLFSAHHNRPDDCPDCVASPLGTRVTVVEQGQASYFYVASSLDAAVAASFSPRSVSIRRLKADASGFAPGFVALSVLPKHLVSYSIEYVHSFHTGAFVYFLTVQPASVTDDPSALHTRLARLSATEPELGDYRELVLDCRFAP
Macrophage-stimulating protein receptor, sequence (Q04912 310-1400 limits assumed): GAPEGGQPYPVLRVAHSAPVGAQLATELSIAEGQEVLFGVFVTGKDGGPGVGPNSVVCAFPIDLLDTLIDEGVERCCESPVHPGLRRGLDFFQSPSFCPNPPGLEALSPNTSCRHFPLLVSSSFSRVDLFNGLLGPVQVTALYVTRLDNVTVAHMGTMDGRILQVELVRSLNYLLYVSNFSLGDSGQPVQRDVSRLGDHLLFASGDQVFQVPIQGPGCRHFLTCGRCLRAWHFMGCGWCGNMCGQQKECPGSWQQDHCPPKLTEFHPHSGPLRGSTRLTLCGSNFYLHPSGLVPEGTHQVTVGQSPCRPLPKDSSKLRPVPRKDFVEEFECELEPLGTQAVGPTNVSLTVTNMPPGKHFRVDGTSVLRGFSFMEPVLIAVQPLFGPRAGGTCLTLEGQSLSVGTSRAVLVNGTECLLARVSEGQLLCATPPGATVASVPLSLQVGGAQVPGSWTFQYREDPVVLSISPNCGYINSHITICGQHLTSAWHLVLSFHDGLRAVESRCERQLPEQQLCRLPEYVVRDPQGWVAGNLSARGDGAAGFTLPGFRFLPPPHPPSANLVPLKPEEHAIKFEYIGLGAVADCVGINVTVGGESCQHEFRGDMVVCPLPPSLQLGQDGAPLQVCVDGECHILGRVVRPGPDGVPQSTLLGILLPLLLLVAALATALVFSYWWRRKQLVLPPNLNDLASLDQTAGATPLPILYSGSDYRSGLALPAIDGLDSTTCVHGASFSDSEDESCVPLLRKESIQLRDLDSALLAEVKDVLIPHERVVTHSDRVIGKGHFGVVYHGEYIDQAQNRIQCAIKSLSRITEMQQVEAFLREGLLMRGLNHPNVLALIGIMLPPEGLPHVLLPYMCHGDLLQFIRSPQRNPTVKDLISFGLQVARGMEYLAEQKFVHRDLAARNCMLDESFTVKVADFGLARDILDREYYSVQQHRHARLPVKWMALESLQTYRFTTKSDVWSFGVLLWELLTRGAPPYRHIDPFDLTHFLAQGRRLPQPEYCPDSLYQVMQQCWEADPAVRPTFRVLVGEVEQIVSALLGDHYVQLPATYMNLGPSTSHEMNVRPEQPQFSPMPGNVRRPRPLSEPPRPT
Protein-tyrosine kinase 6, sequence (Q13882 whole entry): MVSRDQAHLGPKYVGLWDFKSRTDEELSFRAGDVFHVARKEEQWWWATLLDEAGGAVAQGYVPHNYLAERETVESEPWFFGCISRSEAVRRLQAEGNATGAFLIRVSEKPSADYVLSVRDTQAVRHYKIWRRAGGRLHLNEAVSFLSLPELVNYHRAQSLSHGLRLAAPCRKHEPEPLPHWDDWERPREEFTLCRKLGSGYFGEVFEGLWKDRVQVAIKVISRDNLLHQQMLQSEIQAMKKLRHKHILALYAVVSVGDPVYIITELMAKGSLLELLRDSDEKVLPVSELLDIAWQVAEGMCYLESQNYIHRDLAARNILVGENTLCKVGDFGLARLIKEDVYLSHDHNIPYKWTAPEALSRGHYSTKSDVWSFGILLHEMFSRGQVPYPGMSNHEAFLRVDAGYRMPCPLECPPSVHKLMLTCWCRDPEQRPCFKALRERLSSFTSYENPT
Mitogen-activated protein kinase kinase kinase 20, sequence (Q9NYL2 whole entry): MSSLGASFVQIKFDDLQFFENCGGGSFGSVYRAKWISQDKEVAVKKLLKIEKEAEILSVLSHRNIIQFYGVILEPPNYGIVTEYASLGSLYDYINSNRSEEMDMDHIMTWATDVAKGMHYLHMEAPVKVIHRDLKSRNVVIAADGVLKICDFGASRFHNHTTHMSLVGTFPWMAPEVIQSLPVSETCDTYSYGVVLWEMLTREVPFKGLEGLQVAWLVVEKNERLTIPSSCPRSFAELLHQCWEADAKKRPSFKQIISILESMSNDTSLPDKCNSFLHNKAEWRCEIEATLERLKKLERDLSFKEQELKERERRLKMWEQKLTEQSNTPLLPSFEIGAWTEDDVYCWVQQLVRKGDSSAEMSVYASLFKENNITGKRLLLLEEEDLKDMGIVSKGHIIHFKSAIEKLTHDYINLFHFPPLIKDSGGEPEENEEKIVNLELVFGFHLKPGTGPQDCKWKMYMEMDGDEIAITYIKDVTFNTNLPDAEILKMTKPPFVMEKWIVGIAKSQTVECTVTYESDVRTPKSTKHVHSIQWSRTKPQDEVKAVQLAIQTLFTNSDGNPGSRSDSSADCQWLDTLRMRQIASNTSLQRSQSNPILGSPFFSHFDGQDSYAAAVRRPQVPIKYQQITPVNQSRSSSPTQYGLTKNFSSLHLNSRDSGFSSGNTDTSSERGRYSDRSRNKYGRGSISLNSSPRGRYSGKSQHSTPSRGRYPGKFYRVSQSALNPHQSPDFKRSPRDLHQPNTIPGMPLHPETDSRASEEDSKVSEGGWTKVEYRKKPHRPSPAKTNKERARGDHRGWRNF
Tyrosine-protein kinase ABL2, sequence (P42684 whole entry): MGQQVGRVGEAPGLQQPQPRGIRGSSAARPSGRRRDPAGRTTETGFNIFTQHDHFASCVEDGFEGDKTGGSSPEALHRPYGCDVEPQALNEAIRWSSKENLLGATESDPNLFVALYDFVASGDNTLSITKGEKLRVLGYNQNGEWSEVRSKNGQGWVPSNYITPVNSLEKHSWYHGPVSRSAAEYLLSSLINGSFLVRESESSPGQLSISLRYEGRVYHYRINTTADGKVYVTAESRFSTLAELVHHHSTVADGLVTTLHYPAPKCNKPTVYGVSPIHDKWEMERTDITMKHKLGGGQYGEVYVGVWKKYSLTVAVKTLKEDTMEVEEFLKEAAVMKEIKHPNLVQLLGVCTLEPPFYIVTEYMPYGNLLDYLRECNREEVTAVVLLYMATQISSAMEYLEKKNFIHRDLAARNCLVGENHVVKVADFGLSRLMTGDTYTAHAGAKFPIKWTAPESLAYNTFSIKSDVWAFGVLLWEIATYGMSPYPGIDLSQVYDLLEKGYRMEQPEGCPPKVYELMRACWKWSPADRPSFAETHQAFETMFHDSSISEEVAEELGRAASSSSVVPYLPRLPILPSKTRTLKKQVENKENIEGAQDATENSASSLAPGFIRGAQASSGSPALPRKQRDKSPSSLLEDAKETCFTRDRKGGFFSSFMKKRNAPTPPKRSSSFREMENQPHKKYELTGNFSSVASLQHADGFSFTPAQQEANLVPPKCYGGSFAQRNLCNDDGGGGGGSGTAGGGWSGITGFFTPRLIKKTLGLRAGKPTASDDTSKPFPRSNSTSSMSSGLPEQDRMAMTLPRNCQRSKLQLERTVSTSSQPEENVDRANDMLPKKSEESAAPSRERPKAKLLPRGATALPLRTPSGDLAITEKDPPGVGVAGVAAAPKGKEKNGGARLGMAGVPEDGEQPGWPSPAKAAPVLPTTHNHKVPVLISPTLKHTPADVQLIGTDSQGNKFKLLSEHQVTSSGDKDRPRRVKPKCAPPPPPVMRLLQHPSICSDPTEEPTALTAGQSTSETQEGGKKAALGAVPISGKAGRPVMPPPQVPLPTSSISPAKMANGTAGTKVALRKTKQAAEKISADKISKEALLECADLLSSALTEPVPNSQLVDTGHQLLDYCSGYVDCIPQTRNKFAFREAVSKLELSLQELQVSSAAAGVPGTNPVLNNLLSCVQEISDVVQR
5'-AMP-activated protein kinase catalytic subunit alpha-1, sequence (Q13131 whole entry): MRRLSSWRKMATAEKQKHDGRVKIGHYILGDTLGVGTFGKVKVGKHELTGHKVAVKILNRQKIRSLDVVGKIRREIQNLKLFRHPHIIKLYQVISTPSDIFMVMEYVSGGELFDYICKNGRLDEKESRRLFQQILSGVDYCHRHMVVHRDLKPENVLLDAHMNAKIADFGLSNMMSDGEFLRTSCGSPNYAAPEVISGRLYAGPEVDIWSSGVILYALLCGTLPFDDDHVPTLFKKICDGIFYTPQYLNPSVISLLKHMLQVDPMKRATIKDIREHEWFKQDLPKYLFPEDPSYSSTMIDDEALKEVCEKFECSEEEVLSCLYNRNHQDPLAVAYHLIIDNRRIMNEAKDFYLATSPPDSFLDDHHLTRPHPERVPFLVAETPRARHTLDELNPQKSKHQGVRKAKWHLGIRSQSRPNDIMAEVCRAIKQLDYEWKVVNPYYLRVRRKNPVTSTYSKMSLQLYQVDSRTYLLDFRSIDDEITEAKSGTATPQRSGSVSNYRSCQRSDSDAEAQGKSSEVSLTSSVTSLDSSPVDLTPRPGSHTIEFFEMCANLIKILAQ
RAC-gamma serine/threonine-protein kinase, sequence (Q9Y243 whole entry): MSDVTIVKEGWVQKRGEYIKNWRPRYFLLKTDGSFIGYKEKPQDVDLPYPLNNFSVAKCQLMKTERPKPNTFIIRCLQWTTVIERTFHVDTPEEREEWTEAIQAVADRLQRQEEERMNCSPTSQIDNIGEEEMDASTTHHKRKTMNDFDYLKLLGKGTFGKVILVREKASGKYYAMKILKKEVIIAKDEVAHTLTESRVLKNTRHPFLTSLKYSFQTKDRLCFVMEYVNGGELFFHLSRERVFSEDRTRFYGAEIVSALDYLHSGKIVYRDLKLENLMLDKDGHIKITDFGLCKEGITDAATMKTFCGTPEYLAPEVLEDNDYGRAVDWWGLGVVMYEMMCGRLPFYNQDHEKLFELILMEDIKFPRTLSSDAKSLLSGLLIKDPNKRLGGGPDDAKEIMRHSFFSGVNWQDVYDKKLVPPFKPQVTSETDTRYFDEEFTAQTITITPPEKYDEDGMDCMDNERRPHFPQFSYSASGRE

Consider `COc1cc2ncnc(Nc3ccc(F)c(Cl)c3)c2cc1NC(=O)/C=C/CN1CCCCC1` [DACOMITINIB ANHYDROUS], for which the Kd in assay [1], in assay [2], in [3], in [4], in assay [5] and in assay [6] was > 30 µM (inactive) in each case. For the same compound, the Kd in assay [7], in assay [8], in assay [9], in assay [10], in assay [11] and in assay [12] was > 30 µM (inactive) in each case. Moreover, the Kd in [13] was > 30 µM (inactive).
As for `COCCN1CCN(Cc2ccc(-c3n[nH]c4c3C(=O)c3c(NC(=O)NN5CCOCC5)cccc3-4)cc2)CC1` [RGB-286638], the Kd is > 30 µM (inactive) in assay [1]; 1.22 µM (active) in assay [2]; > 30 µM (inactive) in assay [3]; > 30 µM (inactive) in [4]; > 30 µM (inactive) in assay [5]; > 30 µM (inactive) in assay [6]. For the same compound, the Kd is > 30 µM (inactive) in assay [7]; > 30 µM (inactive) in [8]; > 30 µM (inactive) in assay [9]; 1.11 µM (active) in [10]; > 30 µM (inactive) in assay [11]; > 30 µM (inactive) in [12]. The Kd in [13] was > 30 µM (inactive).
Turning to `O=C(NOC[C@H](O)CO)c1ccc(F)c(F)c1Nc1ccc(I)cc1F` [MIRDAMETINIB], the Kd in assay [1], in assay [2], in [3], in [4], in assay [5] and in assay [6] was > 30 µM (inactive) each time. Moreover, the Kd in assay [7], in assay [8], in assay [9], in assay [10], in assay [11] and in assay [12] was > 30 µM (inactive) throughout. For the same compound, the Kd in assay [13] was > 30 µM (inactive).
Consider `CNC(=O)c1cccc(-c2ccc3c(N4CCOC[C@@H]4C)nc(N4CCOC[C@@H]4C)nc3n2)c1` [VISTUSERTIB], for which the Kd in assay [1], in assay [2], in assay [3], in assay [4], in assay [5] and in assay [6] was > 30 µM (inactive) throughout. The Kd in assay [7], in [8], in assay [9], in assay [10], in assay [11] and in assay [12] was > 30 µM (inactive) throughout. The Kd in [13] is > 30 µM (inactive).
As to `Cc1cc(Nc2nc(N[C@@H](C)c3ncc(F)cn3)ncc2Cl)n[nH]1` [AZD-1480], the Kd in assay [1], in assay [2], in assay [3], in assay [4], in [5] and in assay [6] was > 30 µM (inactive) each time. Besides, the Kd in assay [7], in assay [8], in assay [9], in assay [10], in assay [11] and in assay [12] was > 30 µM (inactive) each time. Also, the Kd in [13] is > 30 µM (inactive).
As to `O=C(Nc1ccc(OC(F)(F)F)cc1)c1sccc1NCc1ccnc2ccccc12` [OSI-930], the Kd in assay [1], in [2], in assay [3], in [4], in assay [5] and in assay [6] was > 30 µM (inactive) in each case. In addition, the Kd in assay [7] is > 30 µM (inactive); in assay [8] it was > 30 µM (inactive); in [9], > 30 µM (inactive); in assay [10] it was 7.73 µM (active); in assay [11] it was > 30 µM (inactive); in [12], > 30 µM (inactive). For the same compound, the Kd in assay [13] is > 30 µM (inactive).
Turning to `COc1cccc2cc(-c3nc([C@H]4CC[C@H](C(=O)O)CC4)n4ncnc(N)c34)[nH]c12` [OSI-027], the Kd in assay [1], in assay [2], in [3], in assay [4], in [5] and in assay [6] was > 30 µM (inactive) in each case. The Kd in [7], in [8], in assay [9], in [10], in assay [11] and in [12] was > 30 µM (inactive) throughout. Besides, the Kd in assay [13] is > 30 µM (inactive).
Take `Cc1cc(-c2cc(OC(=O)c3ccccc3)ccc2Cl)cc2nnc(Nc3ccc(OCCN4CCCC4)cc3)nc12` [TG100-801]: the Kd in [1], in assay [2], in assay [3], in assay [4], in [5] and in [6] was > 30 µM (inactive) each time. Besides, the Kd in assay [8] is > 30 µM (inactive); in assay [9] it was 1.03 µM (active); in [10] it was > 30 µM (inactive); in assay [11], > 30 µM (inactive); in assay [12] it was > 30 µM (inactive); in assay [13], > 30 µM (inactive).
With `O=C(NC[C@H](O)CO)c1ccncc1Nc1ccc(I)cc1F` [PIMASERTIB], the Kd in assay [1], in [2], in assay [3], in assay [4], in assay [5] and in [6] was > 30 µM (inactive) throughout. Moreover, the Kd in assay [8], in [9], in [10], in [11], in [12] and in assay [13] was > 30 µM (inactive) throughout.
